Columns and labels:
MHC Class II molecules = experiment: Intensity of expression of MHC Class II molecules by lymph cells after transdermal adjuvant (flow cytometry, FIG. 1); format: in vivo, BALB/c mice; details: for lymph cell count: 50 uL of acetone solution (50%) on shaved abdomen, lymph node removed 5 days later
Procedure: On the other hand, for a group for which an antigen hapten was used in combination, 50 uL of a 1:1 mixture of an FITC solution (5 mg/mL in acetone) and a solution of the adjuvant was transdermally administered to the abdomen. 5 days later, lymph node (cervix, groin) was removed, and the intensity of expression of MHC Class II molecules by lymph cells was analyzed by flow cytometry (FIG. 1).

BALB/c mice = experiment: Skin irritation score, intradermal vs transdermal administration; format: in vivo
[1] = test system: OVA-specific IgG antibody; experiment: OVA-specific IgG antibody titer by ELISA; OVA intradermal plus adjuvant transdermal; format: in vivo, BALB/c mice; details: for Antibody titer (×10^4): OVA 10 ug/head intradermal, 25 uL adjuvant transdermal, dosing at 0, 2, 4 W, 5 W data; for antigen IgG immune response: intradermal ovalbumin plus transdermal adjuvant on intact skin
Procedure: OVA was dissolved in physiological saline and adjusted to give 10 ug/head, and for an OVA-only group 25 uL of the OVA aqueous solution was intradermally administered. For groups in which there was combined use with various types of adjuvant, immediately after the OVA solution was intradermally administered, 25 uL of the adjuvant solution was transdermally administered (coated) via the skin surface of the abdomen. Administration was carried out at 0, 2, and 4 W, blood was collected at 2, 4, and 5 W, and the OVA-specific IgG antibody titer after 2, 4, and 5 W was measured by ELISA.

[2] = test system: OVA-specific IgG antibody; experiment: OVA-specific IgG antibody titer; microneedles coated with antigen emulsion (FIG. 5); format: in vivo, BALB/c mice; details: OVA 0.1 mg/patch; microneedles coated with emulsion 1:1:0.01 (Tween 80); punctured 2 hours
Procedure: Furthermore, for microneedle groups (OVA+lauryl alcohol or oleyl alcohol) microneedle needles were coated with an emulsion [antigen solution:olive oil or lauryl alcohol:surfactant (Tween 80)=1:1:0.01], and puncturing was carried out for 2 hours. Administering was carried out at 0, 2, and 4 W, blood was collected at 2, 4, and 5 W, and the OVA-specific IgG antibody titer was measured by ELISA.

[3] = test system: OVA-specific IgG antibody; experiment: OVA-specific IgG antibody titer; OVA/LA emulsion with microneedle, skin abrasion or iontophoresis (FIG. 2); format: in vivo, BALB/c mice; details: OVA 100 ug/head; OVA solution:LA:Tween 20 1:1:0.01; IP, MN, Skin Prep modes; 4 W data
Procedure: OVA (ovalbumin antigen) was adjusted to give 100 ug/head, for an OVA-only group an OVA aqueous solution was applied, and for a group in which lauryl alcohol (LA) was used in combination, an emulsified solution formed by mixing the OVA solution, LA and Tween 20 (emulsifier) at 1:1:0.01 was used. For the microneedle group, the pre-shaved abdomen skin was punctured with 1 cm^2 of microneedles (needle length about 200 um, 400 needles/cm^2), and immediately after this 50 uL of the above-mentioned emulsion solution was applied. For the skin abrasion treatment group, instead of the microneedles, the skin was abraded 5 times with 3M RED Dot™ 2236 and 50 uL of the emulsion solution was applied. For the iontophoresis group, after the shaven abdomen skin was coated with 50 uL of the emulsion solution, an iontophoresis preparation (nonwoven cloth preparation: Ag, Ag/AgCl 1 cm^2) formed by impregnating a nonwoven cloth with physiological saline was affixed to the coated site, and direct current (0.4 mA/patch) was applied for 1 hour. Administration was carried out at 0, 2, and 4 W, blood was collected at 2, 4, and 5 W, and the OVA-specific IgG antibody titer was measured by ELISA.

[4] = test system: OVA-specific IgG antibody; experiment: OVA-specific IgG antibody titer; antigen-coated microneedles with LA applied in advance (FIG. 3); format: in vivo, hairless rats; details: OVA 2 mg/patch on coated microneedles, punctured 2 hours
Procedure: OVA was adjusted to give 2 mg/patch, a needle portion of microneedles was coated with the antigen and 5% polyvinyl alcohol liquid, and for a microneedle group the abdomen of 7 to 8 W male hairless rats was punctured for 2 hours with physiological saline dropped onto the skin side. For a microneedle+lauryl alcohol group, LA was applied in advance, physiological saline was dropped onto the skin side, and it was punctured for 2 hours with microneedle needles coated with the antigen and 5% polyvinyl alcohol liquid. Administration was carried out at 0, 2, and 4 W, blood was collected at 2, 4, and 5 W, and the OVA-specific IgG antibody titer was measured by ELISA.

[5] = test system: OVA-specific IgG antibody; experiment: OVA-specific IgG antibody titer; microneedles coated with antigen emulsion (FIG. 4); format: in vivo, hairless rats; details: OVA 2 mg/patch; microneedles coated with emulsion antigen:oil or alcohol:Tween 80 1:1:0.01; punctured 2 hours
Procedure: OVA was adjusted to give 2 mg/patch, and for a microneedle group (OVA+5% polyvinyl alcohol), the abdomen of 7 to 8 W male hairless rats was punctured for 2 hours with a needle portion of microneedles coated with antigen and 5% polyvinyl alcohol liquid [mixed at antigen solution:10% polyvinyl alcohol=1:1]. Furthermore, for microneedle groups (OVA+olive oil) or (OVA+lauryl alcohol), microneedle needles were coated with an emulsion [antigen solution:olive oil or lauryl alcohol:surfactant (Tween 80)=1:1:0.01], and puncturing was carried out for 2 hours. Administration was carried out at 0, 2, and 4 W, blood was collected at 2, 4, and 5 W, and the OVA-specific IgG antibody titer was measured by ELISA.

OVA = experiment: Effect of LA adjuvant in administration via oral mucous membrane, antibody titer (FIG. 7); format: in vivo, BALB/c mice; details: OVA 2500 ug/head; antigen solution:LA:Tween 80 8:2:0.05 and 5:5:0.05; blood after 2 weeks

Question: For `CCCCCCCC/C=C\CCCCCCCCO` [Oleyl alcohol, oleyl alcohol], which lymph cell count (MHC Class II molecules) is on record?
Answer: remarkable increase

Question: What about the “skin irritation on transdermal administration” value (from here on “skin irritation”) (BALB/c mice) of the same compound?
Answer: did not cause skin irritation

Question: What about the “Antibody titer (×10^4)” value [1] of the same compound?
Answer: 2.1 ×10^4

Question: What about the “antigen IgG immune response” value [1] of the same compound?
Answer: highest immune response

Question: What about the “OVA-specific IgG antibody titer” value [2] of the same compound?
Answer: increased remarkably

Question: With `CCCCCCCCCCC(CO)CCCCCCCC` (centres unmarked) [Octyldodecanol, octyldodecanol] as the compound, how does the “skin irritation” value (BALB/c mice) read?
Answer: did not cause skin irritation

Question: What about the “Antibody titer (×10^4)” value [1] of the same compound?
Answer: 0.6 ×10^4

Question: For sorbitan monooleate, which lymph cell count (MHC Class II molecules) is on record?
Answer: remarkable increase

Question: Which results are given for `CCCCCCCCCCCCO` [Lauryl alcohol, lauryl alcohol]?
Answer: lymph cell count (MHC Class II molecules): remarkable increase; adjuvant effect in transdermal administration (MHC Class II molecules; comparison among adjuvants): most outstanding adjuvant effect; skin irritation on transdermal administration (BALB/c mice): did not cause skin irritation; Antibody titer (×10^4) [1]: 2.1 ×10^4; antigen IgG immune response [1]: highest immune response; OVA-specific IgG antibody titer [3]: significant increase; OVA-specific IgG antibody titer [4]: increased,remarkably; OVA-specific IgG antibody titer [5]: increased remarkably; OVA-specific IgG antibody titer [2]: increased remarkably; antibody titer, oral mucous membrane administration (OVA): increased in response to the LA concentration

Question: `CCCCCCCC/C=C\CCCCCCCC(=O)O` [oleic acid] was tested. Which lymph cell count (MHC Class II molecules) did it give?
Answer: remarkable increase

Question: How did the lymph cell count (MHC Class II molecules) turn out when `CC(C)CCCCCCCCCCCCCCCO` [Isostearyl alcohol, isostearyl alcohol] was run?
Answer: remarkable increase

Question: What about the “skin irritation” value (BALB/c mice) of the same compound?
Answer: did not cause skin irritation

Question: What about the “Antibody titer (×10^4)” value [1] of the same compound?
Answer: 1.3 ×10^4

Question: polyethylene glycol monolaurate was tested. Which “skin irritation” value (BALB/c mice) did it give?
Answer: did not cause skin irritation

Question: What about the “Antibody titer (×10^4)” value [1] of the same compound?
Answer: 0.9 ×10^4

Question: Which lymph cell count (MHC Class II molecules) does the source give for sorbitan monolaurate here?
Answer: remarkable increase

Question: And the “skin irritation” value (BALB/c mice)?
Answer: did not cause skin irritation
